Measurements as given in ChEMBL document CHEMBL1156885, “Structure-based discovery of novel chemotypes for adenosine A(2A) receptor antagonists” (J Med Chem, 2010).

Key:
Adenosine receptor A2a [1] = target: T1, Adenosine receptor A2a (Homo sapiens, UniProt P29274); experiment: Inhibition of human adenosine 2A receptor
Adenosine receptor A2a [2] = target: T1, Adenosine receptor A2a; experiment: Inhibition of human adenosine 2A receptor at 2 uM
Adenosine receptor A2a [3] = target: T1, Adenosine receptor A2a; experiment: Inhibition of human adenosine 2A receptor at 32 uM

T1 sequence (P29274 whole entry): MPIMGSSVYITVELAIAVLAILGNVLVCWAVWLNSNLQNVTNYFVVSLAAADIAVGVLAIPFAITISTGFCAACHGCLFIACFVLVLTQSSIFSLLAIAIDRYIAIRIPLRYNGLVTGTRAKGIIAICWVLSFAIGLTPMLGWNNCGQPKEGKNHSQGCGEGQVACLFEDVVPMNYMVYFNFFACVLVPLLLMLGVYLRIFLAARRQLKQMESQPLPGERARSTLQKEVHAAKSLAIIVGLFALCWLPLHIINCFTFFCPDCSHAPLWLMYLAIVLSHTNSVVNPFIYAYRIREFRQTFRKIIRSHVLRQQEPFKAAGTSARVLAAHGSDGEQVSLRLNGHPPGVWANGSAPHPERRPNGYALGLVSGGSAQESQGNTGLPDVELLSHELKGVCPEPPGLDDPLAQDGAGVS

SMILES	Ki (Adenosine receptor A2a [1]) [µM]	also measured
Nc1c(Oc2ccccc2)ccc2c1C(=O)c1ccccc1C2=O	1	–
Cn1c(=O)cc2c3c(c(N)ccc31)C(=O)c1ccccc1-2	0.64	–
CC(=O)c1snc(Nc2cc(Cl)ccc2F)c1N	41	–
Cc1nc2ccccc2cc1C(=O)OCC(=O)c1c(N)n(C)c(=O)[nH]c1=O	> 100	–
Nc1ccc(N)c2c1C(=O)c1ccccc1C2=O	0.32	–
Cc1ccc2oc(=N)c3c(N)nc(-c4ccc5c(c4)OCO5)cc3c2c1	> 100	–
CC(Sc1nc(N)c(C(=O)Nc2ccccc2)cc1C#N)C(=O)NCc1ccccc1Cl (stereo unspecified)	> 100	–
Cc1ccc(Nc2nc(N)nc(CSC(C)C(=O)N3CCCCCC3)n2)cc1 (stereo unspecified)	33	–
Nc1nc(CSc2nnc3ccccn23)nc(Nc2ccc(F)cc2)n1	> 100	–
Cc1cc2oc(N)c(C=O)c(=O)c2cc1C	> 100	–
COc1ccc(Nc2nc(N)nc(CSc3nnc(N)s3)n2)cc1	14	–
Nc1c(C(=O)Nc2ccc([N+](=O)[O-])cc2)sc2nc3c(cc12)CCCC3	15	–
COc1ccc(Cl)cc1Nc1nc(N)nc(-c2oc3ccccc3c2C)n1	0.032	inhibition (Adenosine receptor A2a [2]): 80%
CCOC(=O)c1cc(-c2ccc(Br)cc2)cc2c(N)sc(Br)c12	> 100	–
Nc1c(Sc2ccccc2)cc(Sc2ccccc2)c2c1C(=O)c1ccccc1C2=O	1.9	–
CCOC(=O)c1cnc(SCCC(N)=O)nc1N	> 100	–
Cc1cccc(NC2=C(N)C(=O)c3ccccc3C2=O)c1	0.8	–
CCOC(=O)c1cnc(SCC(=O)O)nc1N	> 100	–
Nc1c(C(=O)Nc2nccs2)sc2nc3c(cc12)C(=O)CCC3	1	–
Cc1ccc(N2C(=O)c3cccc(N)c3C2=O)cc1	2.9	–
Nc1nc(CSc2nnc(N)s2)nc(Nc2ccc(F)cc2)n1	13	–
CCc1nc2sc(C(=O)c3cccc(Cl)c3)c(N)c2cc1C	9.1	–
Nc1c(C(=O)Nc2ccccc2Cl)sc2ncccc12	> 100	–
Nc1c(C(=O)Nc2ccc(Cl)cc2)sc2ncccc12	6.9	–
Nc1c(C(=O)c2ccccc2)oc2ccc(Br)cc12	2.2	–
COc1ccc(N)c2c1C(=O)c1ccccc1C2=O	0.53	–
Nc1c(/C=N/c2ccccc2)ccc2c1C(=O)c1ccccc1C2=O	> 100	–

SMILES	Ki (Adenosine receptor A2a [1]) [µM]	also measured
CC(=O)c1ccc(NC(=O)c2sc3nc4c(cc3c2N)CCCC4)cc1	> 100	–
Nc1c(C(=O)Nc2ccc(F)cc2)sc2nc3c(cc12)N1CCC3CC1	> 100	–
Nc1c(Nc2ccccc2C(=O)O)c2ccccc2oc1=O	> 100	–
NC1=C(Nc2cccc(C(F)(F)F)c2)C(=O)c2ccccc2C1=O	0.56	–
CCCc1ccc2c(N)c(C(=O)c3ccccc3)sc2n1	1.3	–
Cc1ccc(Nc2nc(N)nc(CSC(C)C(=O)NCc3ccccc3Cl)n2)cc1 (stereo unspecified)	6	–
CN1CCc2nc3sc(C(=O)Nc4ccc(Cl)cc4)c(N)c3cc2C1	2.7	–
COc1ccc(-n2ccnc2SCC(=O)c2c(N)n(C3CC3)c(=O)[nH]c2=O)cc1	25	–
CN(C(=O)CSc1nc(N)nn1-c1ccccc1)c1ccccc1	> 100	–
N#Cc1c(N)nc2c(oc3ccccc32)c1-c1ccccc1	0.06	inhibition (Adenosine receptor A2a [3]): 91%
CC(=O)Oc1cccc(-c2nc(C(N)=O)c(N)o2)c1	36	–
Cc1ccc(C(=O)CSc2nc(N)c(C#N)c(-c3cccs3)c2C#N)c(C)c1	> 100	–
Nc1ncnc2[nH]c(SCCC(=O)O)nc12	> 100	–
Nc1c(C(=O)Nc2ccccc2F)sc2nc3c(cc12)C(=O)CCC3	0.3	–
N#Cc1c(N)nc2c(C(N)=O)c(Nc3ccccc3)sc2c1-c1ccccc1	0.63	–
Nc1ccc(Cl)c2c1C(=O)c1ccccc1C2=O	0.25	–
N#CC1=C(NC(=O)CSc2ncc(C#N)c(N)n2)SC2CCCCC12 (stereo unspecified)	6.1	–
Cc1ccc(Nc2nc(N)nc(CN3C(=O)NC4(CCCCC4)C3=O)n2)cc1	2.8	–
Nc1nc(SCCCCC(=O)O)c2[nH]cnc2n1	> 100	–
Nc1cccc2c1C(=O)c1ccccc1C2=O	3.2	–
Nc1ncnc2sc3c(c12)CCN(C(=O)CN1CSCC1=O)C3	> 100	–
Cc1ccc(Nc2nc(N)nc(CSCC(=O)NC3CC3)n2)cc1	> 100	–
COC(=O)c1c(N)oc2c(-c3ccc(C)cc3)c3c(C(=O)OC)c(N)oc3cc12	> 100	–
Cc1ccccc1NC(=O)CSCc1nc(N)nc(Nc2ccccc2C)n1	> 100	–
Cc1ccc(Nc2nc(N)nc(CSCCO)n2)cc1	17	–
COCCOC(=O)c1sc(N)c(C#N)c1C	17	–
Nc1ccc(-c2nc3c(N)cccc3[nH]2)cc1	> 100	–
